From patent US20200330447A1, “CANCER TREATMENT VIA REPOSITIONED TRICYCLIC ANTI-DEPRESSANT-LIKE DRUGS AS ANTI-CANCER AGENTS AND NEW COMBINATIONS OF SUCH DRUGS” (Board of Supervisors of Louisiana State University and …, priority 2015, published 2020)

Columns and labels:
Assay type in all cases: cell-based
[1] = test system: DU145 prostate cancer cells; experiment: High content imaging-based screen (Cellomics) for lysosome migration inhibitors; details: pH 6.4 media, 2 micrograms per ml, 16 hours
Experimental: DEVELOPMENT OF A HIGH CONTENT IMAGING-BASED SCREEN: The followings process was followed to identify chemicals that were lysosome migration inhibitors. DU145 prostate cancer cells were seeded in 96 well flat bottom black walled plates at 4,500 cells per well. All compounds and controls were exposed to RPMI bicarbonate buffered media (pH 6.4). RPMI buffered media titrated at pH of 6.4-6.8 was added to column 12 after the media was removed and serves as negative control (low acidic pH so lysosomes move out). […] The 4 compound libraries chosen to screen were the NIH Clinical Collection (450 drugs), Prestwick (1200 drugs), Prestwick phytochemical and the Green Pharma collection (xx drugs). Compounds were diluted with buffered RPMI media to 2 micrograms per ml concentrations. Individual compounds to be screened were added robotically as a single compound per well through columns 2-11. Plates were incubated at 37 degrees in 5% CO2 for 16 hours then the medium was removed and the cells were fixed with 4% cold paraformaldehyde (Sigma-Aldrich) for 20 minutes at 4 degrees. Fixed cells were washed once with PBS. To stain lysosomes, cells were incubated for 1 hour with LAMP1 antibody (H4A3) diluted in BSP (containing 0.25% BSA and 0.1% saponin in PBS) at 1/200. Cells were then washed with PBS 3 times then incubated for 1 hour with Dylight Donkey anti-mouse diluted at 1/200 in BSP. To stain the nucleus, cells were then washed with PBS 3 times and incubated for 20 minutes with 1×DAPI diluted in PBS. DAPI was washed off with PBS and cells were maintained in PBS for the duration of the screening process. Plates were mounted and read in a Cellomics Arrayscan automated fluorescence imager. The Cellomics platform allows for high content throughput screening by combining fluorescence microscopy with a multi-parameter image analysis. Cells were photographed using 20× objective in 2 fluorescent channels. A total of 15 different fields in each well, and at least 300 cells were imaged per well. The biocompartmental analysis algorithm was used to identify each cell by its nucleus (channel 1 recognized by the DAPI stain) and to generate a cytoplasmic mask (ring) of 12 pixels width in which the inner ring was 6 pixels away from the nucleus. The algorithm calculates the number of lysosomes inside the ring as indicated by fluorescent LAMP-1 positive puncta in channel 2 as a mean ring spot count. Therefore, when lysosomes move away from the nucleus and disperse throughout the cytoplasm, the number of spots representing lysosomes inside the cytoplasmic ring increases (low pH conditions). By contrast, lysosomes cluster near the nucleus the numbers of spot inside the cytoplasmic ring decreases (EIPA treated).
Z′-factor is a simple statistical coefficient used to assess performance and quality of the assay in high-throughput screening. It is calculated with the formula: Z′=1-(3σct+3σcb)/|μct−μcb|, where p indicates mean, a represents standard deviation, “ct” indicates the positive control, “cb” indicates the negative control. […] If the Z′ is more than 0.5, the assay is considered to be high quality assay.
The Z′ factor of the assay was determined from the EIPA (positive control) and low pH (negative control). Experiments were run in duplicate. Only plates with positive Z′ factor was used for analysis.

U373 glioma cell lines = experiment: Lysosome outward movement in U373 cells; details: method of FIG. 2
Experimental: A172 glioblastoma cells were treated overnight with 5 or 10 μM deptropine or pizotifen or with the deptropine or pizotifen in combination at 5 μM concentration. The next day, media was change to low pHe media containing deptropine or pizotifen and the cells were incubated for an additional 2 h. EIPA is a known inhibitor of lysosomal outward movement and represents the positive control. At the end of the incubation time, cells were fixed and stained for LAMP-1, filamentous actin and nuclei. Representative merged IF images depicting the effect of pHe 7.4, pHe 6.4, DMSO or deptropine and pizotifen on the distribution of lysosomes in A172 glioblastoma cells. On color versions of the Figure, red puncta are lysosomes, blue is nuclei and green is actin. As could be seen, lysosomes appear more peripherally distributed in A172 glioma cells than in cells treated with concentrations of 5 to 10 micromolar deptropine or pizotifen.
In an additional experiment, following the method whose results are shown in FIG. 2 above but with different cells, the broad range and general effectiveness of deptropine and pizotifen is shown beyond just in A172 glioblastoma cells. Specifically, deptropine and pizotifen were applied to U373 glioma cell lines instead of A172 glioblastoma cells.

A172 glioblastoma cells [2] = experiment: Wound motility (migration) assay, Incucyte; details: for motility: 5 or 10 μM, 8 h prior to wounding; for motility (percent migration), single drug: either drug alone at 10 μM
Experimental: (§1) An important aspect of this technology is the showing that deptropine and pizotifen block tumor invasion using 3D assays. […] For this experiment A172 glioblastoma cells were treated with 5 or 10 μM deptropine or pizotifen or drug mix at 5 μM concentration for 8 h prior to the wounding and the addition of matrigel. Upon wounding, cells were allowed to migrate or invade through matrigel in the presence of DMSO, 5 or 10 μM deptropine or pizotifen or the drug mix at 5 μM concentration. EIPA, a known inhibitor of lysosomal outward movement, is the positive control. Motility and invasion were calculated by Incucyte platform that acquires real time images of invasion and motility and calculate the relative wound density percentage at different time points. Percent migration (FIG. 6A) or invasion (FIG. 6B) through matrigel in A172 glioblastoma cells in the presence of DMSO, 5 or 10 μM deptropine or pizotifen or the drug mix at 5 μM concentration. Error bars represent s.e.m. of 5 separate experiments. # statistical significance, p<0.001, versus both 1% FBS and DMSO; *, p<0.01 versus both 1% FBS and DMSO

A172 glioblastoma cells [3] = experiment: Wound invasion through matrigel, Incucyte; details: for invasion: 5 or 10 μM, 8 h prior to wounding and addition of matrigel
Experimental: as §1

mTOR signaling pathway = experiment: Western blot of phosphorylated S6K (mTOR signaling); details: A172 cells, 4 hours
Experimental: Deptropine and pizotifen were added to A172 cells for 4 hours and western blot analysis was performed to measure levels of phosphorylated S6K, indicative of active mTOR signaling.

LC3-II = experiment: Autophagy: LC3-I/LC3-II western blot and GFP-LC3II microscopy; details: A172 cells, overnight; for levels of LC3-II, western blot: deptropine 5 or 10 micromolar, pizotifen 5 micromolar; for association of GFP-LC3-II with puncta representing autophagosomes: microscopy
Experimental: A further embodiment of this technology is the use of deptropine and pizotifen to induce autophagy. A172 cells were treated with EIPA (1), Serum (2), Serum Free (3), DMSO (4, solvent control), rapamycin 0.5 micromolar (5), one micromolar (6), deptropine at 5 micromolar (7), 10 micromolar (8) or pizotifen at 5 micromolar (9) overnight and GFP-LC3II was visualized by microscopy or western blot analysis was performed to detect LC3-I and LC3-II forms.

A172 cells = experiment: Standard MTS assay (proliferation); details: concentrations up to 10 micromolar
Experimental: A very beneficial aspect of the treatment with deptropine and pizotifen is shown in FIG. 11, namely that the actions of deptropine and pizotifen are not the result of toxicity. The standard MTS assay was performed for A172 cells in the presence of the indicate concentrations of deptropine and pizotifen.

SMILES | hit in screen for lysosome migration inhibitors (mean ring spot count) [1] | lysosome outward movement (U373 glioma cell lines) | motility (A172 glioblastoma cells [2]) | motility (percent migration), single drug (A172 glioblastoma cells [2]) | invasion (A172 glioblastoma cells [3]) | phosphorylation of S6K (mTOR signaling pathway) | levels of LC3-II, western blot (LC3-II) | association of GFP-LC3-II with puncta representing autophagosomes (LC3-II) | proliferation (MTS) (A172 cells) | invasion through matrigel (percent invasion) (A172 glioblastoma cells [3]; 10 μM)
CN1[C@@H]2CC[C@H]1C[C@@H](OC1c3ccccc3CCc3ccccc31)C2 [deptropine, 3a-[(10, 11-dihydro-5H-dibenzo[a,d]cyclohepten-5-yl)oxy]1aH,5aH-tropane] | hits | block lysosome outward movement | decrease | reduces motility but to a level that is determined to be significant | decrease | eliminates the phosphorylation of S6K | increases the levels of the proteins LC3-II | increase the association GFP-LC3-II with puncta | do not inhibit proliferation | 
CN1CCC(=C2c3ccccc3CCc3sccc32)CC1 [pizotifen, 4-(1-methyl-4-piperidylidine)-9,10-dihydro-4H-benzo-[4,5]cyclohepta[1,2]-thiophene] | hits | block lysosome outward movement | decrease | reduces motility but to a level that is determined to be significant | decrease | eliminates the phosphorylation of S6K | increases the levels of the proteins LC3-II | increase the association GFP-LC3-II with puncta | do not inhibit proliferation | significantly reduces invasion
